Laboratory results as given in ChEMBL document CHEMBL1134912, “Cytotoxic acridinylthiourea and its platinum conjugate produce enzyme-mediated DNA strand breaks” (Bioorg Med Chem Lett, 2002).
Calls of active or inactive are those of the source. No cut-off for these calls is given here.

Tests used:
Ovarian cancer cell line = experiment: Clonogenic survival activity against human ovarian cancer cells (2008, C13*) cells; 0.01-10 range; format: functional, cell-based
Nucleic Acid = experiment: Compound was tested for the induction of DNA strand breaks at concentrations of 0.1 and 0.5 uM; Active; format: nucleic-acid assay
[1] = Concentration required for complete inhibition of relaxation of supercoiled plasmid (form I) at concentrations; format: functional

SMILES: CNC(=S)N(C)CCNc1c2ccccc2nc2ccccc12
- IC50 (Ovarian cancer cell line): 0.01 µM
- Activity (Nucleic Acid): Active
- Inhibition concentration [1]: > 25 µM
